Measured values reported in publication PMC4522657, “Identification of a DYRK1A Inhibitor that Induces Degradation of the Target Kinase using Co-chaperone CDC37 fused with Luciferase nanoKAZ” (Scientific Reports, 2015).

Assays:
Experiment in all cases: Kinase panel, CaNDY 1 µM
Format in all cases: biochemical
Conditions in all cases: CaNDY 1 µM relative to DMSO
BMX = target: T1, BMX (Homo sapiens, UniProt P51813)
T1 construct: purchased Carna Biosciences
Procedure, shortened: (§1)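 Percent inhibition was derived from the phosphorylated fraction, P/(P + S), compared with reactions lacking compound. Phosphorylation was measured by electrophoretic mobility shift after 1 h at room temperature. Kinases were recombinant full-length human GST fusions from a baculovirus system; DMSO was 1% final.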

CK1α = target: T2, CK1α (Homo sapiens, UniProt P48729)
T2 construct: purchased Carna Biosciences
Procedure, shortened: as §1

BRAF_Cascade = target: T3, BRAF_Cascade (Homo sapiens, UniProt P15056)
T3 construct: purchased Carna Biosciences
Procedure, shortened: as §1

NuaK1 = target: T4, NuaK1 (Homo sapiens, UniProt O60285)
T4 construct: purchased Carna Biosciences
Procedure, shortened: as §1

MNK1 = target: T5, MNK1 (Homo sapiens, UniProt Q9BUB5)
T5 construct: purchased Carna Biosciences
Procedure, shortened: as §1

COT_Cascade = target: T6, COT_Cascade (Homo sapiens, UniProt P41279)
T6 construct: purchased Carna Biosciences
Procedure, shortened: as §1

AKT1 = target: T7, AKT1 (Homo sapiens, UniProt P31749)
T7 construct: purchased Carna Biosciences
Procedure, shortened: as §1

ALK(L1196M) = target: T8, ALK(L1196M) (Homo sapiens, UniProt Q9UM73, L1196M)
T8 construct: purchased Carna Biosciences
Procedure, shortened: as §1

MAPKAPK2 = target: T9, MAPKAPK2 (Homo sapiens, UniProt P49137)
T9 construct: purchased Carna Biosciences
Procedure, shortened: as §1

MGC42105 = target: T10, MGC42105 (Homo sapiens, UniProt Q8IY84)
T10 construct: purchased Carna Biosciences
Procedure, shortened: as §1

CDK5/p25 = target: T11, CDK5/p25 (Homo sapiens, UniProt Q00535)
T11 construct: purchased Carna Biosciences
Procedure, shortened: as §1

WNK3 = target: T12, WNK3 (Homo sapiens, UniProt Q9BYP7)
T12 construct: purchased Carna Biosciences
Procedure, shortened: as §1

PKCζ = target: T13, PKCζ (Homo sapiens, UniProt Q05513)
T13 construct: purchased Carna Biosciences
Procedure, shortened: as §1

DDR2 = target: T14, DDR2 (Homo sapiens, UniProt Q16832)
T14 construct: purchased Carna Biosciences
Procedure, shortened: as §1

PEK = target: T15, PEK (Homo sapiens, UniProt Q9NZJ5)
T15 construct: purchased Carna Biosciences
Procedure, shortened: as §1

EPHA8 = target: T16, EPHA8 (Homo sapiens, UniProt P29322)
T16 construct: purchased Carna Biosciences
Procedure, shortened: as §1

CDK9/CycT1 = target: T17, CDK9/CycT1 (Homo sapiens, UniProt P50750)
T17 construct: purchased Carna Biosciences
Procedure, shortened: as §1

MET = target: T18, MET (Homo sapiens, UniProt P08581)
T18 construct: purchased Carna Biosciences
Procedure, shortened: as §1

AurC = target: T19, AurC (Homo sapiens, UniProt Q9UQB9)
T19 construct: purchased Carna Biosciences
Procedure, shortened: as §1

ABL(E255K) = target: T20, ABL(E255K) (Homo sapiens, UniProt P00519, E255K)
T20 construct: purchased Carna Biosciences
Procedure, shortened: as §1

MRCKβ = target: T21, MRCKβ (Homo sapiens, UniProt Q9Y5S2)
T21 construct: purchased Carna Biosciences
Procedure, shortened: as §1

AurB = target: T22, AurB (Homo sapiens, UniProt Q96GD4)
T22 construct: purchased Carna Biosciences
Procedure, shortened: as §1

EPHA3 = target: T23, EPHA3 (Homo sapiens, UniProt P29320)
T23 construct: purchased Carna Biosciences
Procedure, shortened: as §1

PKCθ = target: T24, PKCθ (Homo sapiens, UniProt Q04759)
T24 construct: purchased Carna Biosciences
Procedure, shortened: as §1

SGK = target: T25, SGK (Homo sapiens, UniProt O00141)
T25 construct: purchased Carna Biosciences
Procedure, shortened: as §1

TEC = target: T26, TEC (Homo sapiens, UniProt P42680)
T26 construct: purchased Carna Biosciences
Procedure, shortened: as §1

MAP2K3_Cascade = target: T27, MAP2K3_Cascade (Homo sapiens, UniProt P46734)
T27 construct: purchased Carna Biosciences
Procedure, shortened: as §1

SGK3 = target: T28, SGK3 (Homo sapiens, UniProt Q96BR1)
T28 construct: purchased Carna Biosciences
Procedure, shortened: as §1

CK1γ3 = target: T29, CK1γ3 (Homo sapiens, UniProt Q9Y6M4)
T29 construct: purchased Carna Biosciences
Procedure, shortened: as §1

Erk5 = target: T30, Erk5 (Homo sapiens, UniProt Q13164)
T30 construct: purchased Carna Biosciences
Procedure, shortened: as §1

FGR = target: T31, FGR (Homo sapiens, UniProt P09769)
T31 construct: purchased Carna Biosciences
Procedure, shortened: as §1

PDK1 = target: T32, PDK1 (Homo sapiens, UniProt O15530)
T32 construct: purchased Carna Biosciences
Procedure, shortened: as §1

LYNa = target: T33, LYNa (Homo sapiens, UniProt P07948)
T33 construct: purchased Carna Biosciences
Procedure, shortened: as §1

MRCKα = target: T34, MRCKα (Homo sapiens, UniProt Q5VT25)
T34 construct: purchased Carna Biosciences
Procedure, shortened: as §1

MAPKAPK5 = target: T35, MAPKAPK5 (Homo sapiens, UniProt Q8IW41)
T35 construct: purchased Carna Biosciences
Procedure, shortened: as §1

CDK7/CycH/MAT1 = target: T36, CDK7/CycH/MAT1 (Homo sapiens, UniProt P50613)
T36 construct: purchased Carna Biosciences
Procedure, shortened: as §1

T10 sequence (Q8IY84 whole entry): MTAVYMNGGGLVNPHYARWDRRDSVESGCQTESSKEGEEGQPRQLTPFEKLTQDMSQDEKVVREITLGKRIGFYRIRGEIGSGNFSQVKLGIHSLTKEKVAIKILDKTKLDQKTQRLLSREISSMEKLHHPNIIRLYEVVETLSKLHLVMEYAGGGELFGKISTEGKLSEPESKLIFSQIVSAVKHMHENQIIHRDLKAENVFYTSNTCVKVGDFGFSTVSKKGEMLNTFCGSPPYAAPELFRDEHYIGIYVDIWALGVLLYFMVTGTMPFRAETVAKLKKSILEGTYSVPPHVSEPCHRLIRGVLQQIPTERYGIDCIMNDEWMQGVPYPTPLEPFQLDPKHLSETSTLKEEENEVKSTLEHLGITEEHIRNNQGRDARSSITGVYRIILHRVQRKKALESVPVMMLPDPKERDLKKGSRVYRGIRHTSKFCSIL
T8 sequence (Q9UM73 19-1620 L1196M): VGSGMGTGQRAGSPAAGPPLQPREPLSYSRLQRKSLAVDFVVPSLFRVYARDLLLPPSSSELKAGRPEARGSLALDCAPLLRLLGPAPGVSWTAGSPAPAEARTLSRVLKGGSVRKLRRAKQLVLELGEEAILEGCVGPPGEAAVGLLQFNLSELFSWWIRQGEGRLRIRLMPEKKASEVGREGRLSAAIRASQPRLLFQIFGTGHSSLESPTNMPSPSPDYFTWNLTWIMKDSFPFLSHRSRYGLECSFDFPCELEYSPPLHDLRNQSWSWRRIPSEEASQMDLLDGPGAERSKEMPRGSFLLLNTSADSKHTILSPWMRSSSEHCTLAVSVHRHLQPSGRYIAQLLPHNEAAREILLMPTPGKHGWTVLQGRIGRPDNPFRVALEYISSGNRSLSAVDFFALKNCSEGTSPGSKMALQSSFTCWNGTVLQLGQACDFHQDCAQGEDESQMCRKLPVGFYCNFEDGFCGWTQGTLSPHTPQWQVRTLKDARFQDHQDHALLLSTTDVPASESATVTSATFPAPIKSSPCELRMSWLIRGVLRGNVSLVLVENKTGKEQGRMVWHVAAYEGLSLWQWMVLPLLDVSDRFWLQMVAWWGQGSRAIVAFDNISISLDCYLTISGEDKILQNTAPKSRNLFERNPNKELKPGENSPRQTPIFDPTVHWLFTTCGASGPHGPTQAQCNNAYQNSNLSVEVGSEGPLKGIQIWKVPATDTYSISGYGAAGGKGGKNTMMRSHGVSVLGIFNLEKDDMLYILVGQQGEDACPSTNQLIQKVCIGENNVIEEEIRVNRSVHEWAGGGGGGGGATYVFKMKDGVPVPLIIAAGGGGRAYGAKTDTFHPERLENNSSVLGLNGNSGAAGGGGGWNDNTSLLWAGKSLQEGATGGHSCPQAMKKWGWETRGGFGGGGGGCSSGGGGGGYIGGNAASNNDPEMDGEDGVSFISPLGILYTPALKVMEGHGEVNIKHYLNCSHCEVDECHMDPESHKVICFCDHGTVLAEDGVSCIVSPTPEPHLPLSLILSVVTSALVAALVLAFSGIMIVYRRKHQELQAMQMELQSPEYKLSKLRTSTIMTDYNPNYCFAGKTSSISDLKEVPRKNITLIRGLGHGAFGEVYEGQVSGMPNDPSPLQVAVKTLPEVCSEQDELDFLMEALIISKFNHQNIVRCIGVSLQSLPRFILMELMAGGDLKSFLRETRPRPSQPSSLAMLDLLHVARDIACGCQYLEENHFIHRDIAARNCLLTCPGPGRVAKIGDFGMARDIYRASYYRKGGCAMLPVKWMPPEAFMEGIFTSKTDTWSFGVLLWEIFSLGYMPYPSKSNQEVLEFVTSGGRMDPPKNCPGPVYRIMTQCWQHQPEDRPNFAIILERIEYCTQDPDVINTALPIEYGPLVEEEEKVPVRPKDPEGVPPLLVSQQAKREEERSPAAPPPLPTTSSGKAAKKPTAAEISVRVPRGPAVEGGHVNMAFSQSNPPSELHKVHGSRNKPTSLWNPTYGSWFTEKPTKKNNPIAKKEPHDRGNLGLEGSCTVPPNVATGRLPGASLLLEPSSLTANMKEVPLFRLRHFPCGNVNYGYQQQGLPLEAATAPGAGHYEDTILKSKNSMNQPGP
T17 sequence (P50750 whole entry): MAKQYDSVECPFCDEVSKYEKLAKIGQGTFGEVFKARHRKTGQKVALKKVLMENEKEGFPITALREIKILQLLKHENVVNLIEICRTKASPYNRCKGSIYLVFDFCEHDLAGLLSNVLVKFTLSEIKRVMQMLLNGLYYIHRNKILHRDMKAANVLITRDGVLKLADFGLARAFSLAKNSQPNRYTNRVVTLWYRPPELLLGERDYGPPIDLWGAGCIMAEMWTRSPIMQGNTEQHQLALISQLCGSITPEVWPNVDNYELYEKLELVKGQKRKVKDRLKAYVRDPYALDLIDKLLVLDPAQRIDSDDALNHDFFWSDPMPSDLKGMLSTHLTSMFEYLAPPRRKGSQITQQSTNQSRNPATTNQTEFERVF
T17 sequence (O60563 whole entry partner): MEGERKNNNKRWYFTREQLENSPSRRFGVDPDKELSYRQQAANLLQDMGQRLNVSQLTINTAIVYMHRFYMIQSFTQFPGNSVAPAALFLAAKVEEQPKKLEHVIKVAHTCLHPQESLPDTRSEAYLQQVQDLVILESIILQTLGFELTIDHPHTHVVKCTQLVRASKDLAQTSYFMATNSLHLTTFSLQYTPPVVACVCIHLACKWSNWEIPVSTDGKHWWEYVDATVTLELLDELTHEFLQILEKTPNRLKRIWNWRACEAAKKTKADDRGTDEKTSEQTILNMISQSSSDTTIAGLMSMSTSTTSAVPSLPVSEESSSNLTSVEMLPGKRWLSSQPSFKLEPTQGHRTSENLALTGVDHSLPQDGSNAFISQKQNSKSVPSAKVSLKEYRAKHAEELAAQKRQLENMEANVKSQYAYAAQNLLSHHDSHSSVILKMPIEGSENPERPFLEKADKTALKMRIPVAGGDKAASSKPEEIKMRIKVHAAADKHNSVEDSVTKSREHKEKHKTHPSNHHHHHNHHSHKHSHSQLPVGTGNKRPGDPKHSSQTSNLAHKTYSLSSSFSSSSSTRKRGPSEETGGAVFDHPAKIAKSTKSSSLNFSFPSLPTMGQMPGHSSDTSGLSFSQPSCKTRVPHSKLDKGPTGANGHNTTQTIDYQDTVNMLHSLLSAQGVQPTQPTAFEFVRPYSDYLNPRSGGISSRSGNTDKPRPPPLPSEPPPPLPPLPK
T12 sequence (Q9BYP7 whole entry): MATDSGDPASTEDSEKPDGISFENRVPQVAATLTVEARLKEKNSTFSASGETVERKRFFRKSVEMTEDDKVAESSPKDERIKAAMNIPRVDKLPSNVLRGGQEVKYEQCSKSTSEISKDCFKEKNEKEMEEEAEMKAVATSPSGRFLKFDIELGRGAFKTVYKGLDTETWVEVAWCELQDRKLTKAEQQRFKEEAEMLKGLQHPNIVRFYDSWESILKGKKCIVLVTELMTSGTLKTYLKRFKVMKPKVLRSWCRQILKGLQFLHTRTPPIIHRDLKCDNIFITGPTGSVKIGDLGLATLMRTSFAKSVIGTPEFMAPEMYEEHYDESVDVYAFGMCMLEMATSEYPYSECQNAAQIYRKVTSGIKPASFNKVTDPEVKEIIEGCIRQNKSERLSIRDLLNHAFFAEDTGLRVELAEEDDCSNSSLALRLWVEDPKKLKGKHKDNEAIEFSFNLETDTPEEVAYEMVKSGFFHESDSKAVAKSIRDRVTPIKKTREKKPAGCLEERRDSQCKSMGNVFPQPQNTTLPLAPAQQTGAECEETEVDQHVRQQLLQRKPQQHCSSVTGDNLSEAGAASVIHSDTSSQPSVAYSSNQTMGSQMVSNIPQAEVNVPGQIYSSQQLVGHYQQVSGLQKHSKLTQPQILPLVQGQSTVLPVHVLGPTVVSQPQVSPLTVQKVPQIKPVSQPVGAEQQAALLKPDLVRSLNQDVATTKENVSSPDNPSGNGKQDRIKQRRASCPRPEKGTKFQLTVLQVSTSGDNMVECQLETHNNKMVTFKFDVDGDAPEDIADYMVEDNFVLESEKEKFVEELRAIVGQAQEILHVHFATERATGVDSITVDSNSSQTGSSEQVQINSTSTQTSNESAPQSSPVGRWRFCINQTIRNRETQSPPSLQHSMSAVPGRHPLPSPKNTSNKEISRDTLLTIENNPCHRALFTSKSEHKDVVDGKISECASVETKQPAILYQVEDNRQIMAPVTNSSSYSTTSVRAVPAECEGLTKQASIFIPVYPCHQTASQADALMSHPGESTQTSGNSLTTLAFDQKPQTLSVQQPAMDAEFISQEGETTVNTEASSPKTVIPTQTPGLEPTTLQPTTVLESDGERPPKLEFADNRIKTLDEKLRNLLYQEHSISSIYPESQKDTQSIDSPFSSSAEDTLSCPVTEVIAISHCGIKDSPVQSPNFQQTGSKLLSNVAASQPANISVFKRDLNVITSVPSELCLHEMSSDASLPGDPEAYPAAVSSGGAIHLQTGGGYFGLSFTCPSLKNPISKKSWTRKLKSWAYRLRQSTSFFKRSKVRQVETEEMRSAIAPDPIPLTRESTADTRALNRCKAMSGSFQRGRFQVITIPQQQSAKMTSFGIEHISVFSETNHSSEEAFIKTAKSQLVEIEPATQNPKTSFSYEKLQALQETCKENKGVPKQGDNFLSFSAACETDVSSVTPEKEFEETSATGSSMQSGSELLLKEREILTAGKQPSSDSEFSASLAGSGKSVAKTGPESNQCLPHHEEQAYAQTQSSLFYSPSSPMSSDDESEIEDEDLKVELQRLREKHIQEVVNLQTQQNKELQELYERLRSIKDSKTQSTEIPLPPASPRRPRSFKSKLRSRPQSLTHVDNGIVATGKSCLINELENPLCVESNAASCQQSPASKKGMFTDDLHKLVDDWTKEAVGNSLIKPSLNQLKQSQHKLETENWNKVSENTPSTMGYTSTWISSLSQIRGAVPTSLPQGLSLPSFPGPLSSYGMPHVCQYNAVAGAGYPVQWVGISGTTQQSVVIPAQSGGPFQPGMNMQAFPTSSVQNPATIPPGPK

SMILES: [H]/N=C1/NC(=O)C(=Cc2ccc3c(c2)CCO3)S1 [CaNDY, (Z)-5-[(2,3-dihydrobenzofuran-5-yl)methylene]-2-iminothiazolidin-4-one]
- remaining activity at 1 µM (BMX): 100%
- remaining activity at 1 µM (CK1α): 73.6%
- remaining activity at 1 µM (BRAF_Cascade): 108%
- %Activity (NuaK1): 98.1%
- remaining activity at 1 µM (MNK1): 94.6%
- remaining activity at 1 µM (COT_Cascade): 72.9%
- remaining activity at 1 µM (AKT1): 104%
- remaining activity at 1 µM (ALK(L1196M)): 97.8%
- remaining activity at 1 µM (MAPKAPK2): 100%
- remaining activity at 1 µM (MGC42105): 102%
- remaining activity at 1 µM (CDK5/p25): 88.5%
- remaining activity at 1 µM (WNK3): 102%
- remaining activity at 1 µM (PKCζ): 95.9%
- remaining activity at 1 µM (DDR2): 101%
- remaining activity at 1 µM (PEK): 90.4%
- remaining activity at 1 µM (EPHA8): 101%
- remaining activity at 1 µM (CDK9/CycT1): 19.4%
- %Activity (MET): 97.7%
- remaining activity at 1 µM (AurC): 97%
- remaining activity at 1 µM (ABL(E255K)): 104%
- remaining activity at 1 µM (MRCKβ): 82.5%
- remaining activity at 1 µM (AurB): 95.1%
- remaining activity at 1 µM (EPHA3): 96.3%
- remaining activity at 1 µM (PKCθ): 74.9%
- remaining activity at 1 µM (SGK): 93.6%
- remaining activity at 1 µM (TEC): 103%
- remaining activity at 1 µM (MAP2K3_Cascade): 101%
- remaining activity at 1 µM (SGK3): 93.3%
- %Activity (CK1γ3): 79.0%
- remaining activity at 1 µM (Erk5): 104%
- remaining activity at 1 µM (FGR): 102%
- remaining activity at 1 µM (PDK1): 107%
- remaining activity at 1 µM (LYNa): 97.6%
- remaining activity at 1 µM (MRCKα): 128%
- remaining activity at 1 µM (MAPKAPK5): 95.5%
- remaining activity at 1 µM (CDK7/CycH/MAT1): 93.6%
